From patent US20060116401A1, “Antibacterial compounds” (AstraZeneca AB, priority 2002, published 2006) come the findings set out here.

SMILES strings stand for the structures. ≈ marks a conversion by molar mass, not a printed value.

Type in all cases: cell-based
One test concerns Streptococcus pneumoniae. Kind of test: MIC, agar with 5% defibrinated horse blood, streptococci. Conditions: agar + 5% horse blood, 10^4 CFU/spot, 37° C., 5% carbon dioxide, 48 hours. The procedure:
(§1) The following results were obtained on a standard in-vitro test system The activity is described in terms of the minimum inhibitory concentration (MIC) determined by the agar-dilution technique with an inoculum size of 10^4 CFU/spot. Typically, compounds are active in the range 0.01 to 256 μg/ml.
(§2) Streptococci and enterococci were tested on agar supplemented with 5% defibrinated horse blood, an inoculum of 10^4 CFU/spot and an incubation temperature of 37° C. in an atmosphere of 5% carbon dioxide for 48 hours—blood is required for the growth of some of the test organisms. Fastidious Gram negative organisms were tested in Mueller-Hinton broth, supplemented with hemin and NAD, grown aerobically for 24 hours at 37° C., and with an innoculum of 5×10^4 CPU/well.

The subject of test [1] is Staphylococcus aureus MRQR (methicillin resistant and quinolone resistant). Nature of the test: MIC, agar dilution, staphylococci (MRQR strain). As to conditions: 10^4 CFU/spot, 37° C., 24 hours. The procedure:
as §1
(§3) Staphylococci were tested on agar, using an inoculum of 10^4 CFU/spot and an incubation temperature of 37° C. for 24 hours—standard test conditions for the expression of methicillin resistance.

The test system of another test is Haemophilus influenzae. Nature of the test: MIC, fastidious Gram negative organisms in Mueller-Hinton broth. Conditions: Mueller-Hinton broth with hemin and NAD, aerobic, 24 hours, 37° C. How it is done:
as §1, §2

A further test has as its system Moraxella catarrhalis. The test is described as above. Conditions: Mueller-Hinton broth with hemin and NAD, aerobic, 24 hours, 37° C. How it is done: as §1, §2
In a further test the test system is Enterococcus faecium. Kind of test: MIC, agar with 5% defibrinated horse blood, enterococci. As to conditions: agar + 5% horse blood, 10^4 CFU/spot, 37° C., 5% carbon dioxide, 48 hours. The procedure: as §1, §2
Test [2] concerns Staphylococcus aureus MSQS (methicillin sensitive and quinolone sensitive). Nature of the test: MIC, agar dilution, staphylococci (MSQS strain). Conditions: 10^4 CFU/spot, 37° C., 24 hours. The procedure: as §1, §3
In test [3] the test system is Linezolid Resistant Streptococcus pneumoniae. Nature of the test: MIC, agar with 5% defibrinated horse blood, linezolid resistant streptococci. Conditions: agar + 5% horse blood, 10^4 CFU/spot, 37° C., 5% carbon dioxide, 48 hours. The procedure:
as §1, §2

Turning to `O=C1O[C@@H](Cn2ccnn2)CN1c1ccc(-c2ccc(C3=NOC(CO)C3)c(F)c2)c(F)c1` (stereo partly drawn) [Example 4, (5R)-3-{2,3′-Difluoro-4′-[5-(hydroxymethyl)-4,5-dihydroisoxazol-3-yl]-1,1′-biphenyl-4-yl}-5-(1H-1,2,3-triazol-1-ylmethyl)-1,3-oxazolidin-2-one], the MIC turned out to be 0.13 µg/mL in the test with Streptococcus pneumoniae; 0.5 µg/mL (≈ 1.1 µM) in test [1]; 4 µg/mL (≈ 8.78 µM) in the test with Haemophilus influenzae; 0.5 µg/mL (≈ 1.1 µM) against Moraxella catarrhalis; 0.5 µg/mL in the test with Enterococcus faecium; 0.5 µg/mL (≈ 1.1 µM) in test [2]. Besides, the MIC in test [3] turned out to be 1 µg/mL.
